How the values were obtained:
[1] = test system: Cal27 cells; experiment: MDC staining for autophagy; assay type: cell-based, human; conditions: 24 h
Description: In order to determine whether compound 7be induced autophagy, Cal27 cells were incubated with compound 7be at different concentrations for 24 h. MDC staining was used to detect any MDC-positive vesicles in cells of Cal27 cells by confocal microscope (Figure 13a).

[2] = test system: LC3, p62, Beclin-1 in Cal27 cells; experiment: Western blot of autophagy-related markers; assay type: cell-based, human
Description: In addition, in order to further clarify the potential mechanism of autophagy induced by compound 7be, Western blot analysis was used to detect the expression of autophagy-related markers, including microtubule-associated protein 1 light chain protein-3 protein (LC3), p62 and Beclin-1. In the process of autophagy, LC3 is essential for the maturation of the autophagosome and its fusion with the lysosome.
After Cal27 cells had been treated with the desired concentration of each drug for 24 h, the cells were collected and the total protein was extracted. The cells were then separated on a gel of appropriate concentration and transferred to a PVDF membrane. After blocking with milk, the membrane was incubated with primary antibody at 4 °C overnight. Subsequently, the membrane was incubated with horseradish peroxidase-coupled secondary antibody for 2 h. Finally, the protein bands were used to detect the immunoreactive signal using an enhanced chemiluminescence kit.

[3] = target: T1, Topo I (Homo sapiens, UniProt P11387); experiment: Cellular thermal shift assay (CETSA); assay type: cell-based; design: endogenous in cells; host or cells: Cal27; conditions: 8 μM
T1 sequence (P11387 1-765): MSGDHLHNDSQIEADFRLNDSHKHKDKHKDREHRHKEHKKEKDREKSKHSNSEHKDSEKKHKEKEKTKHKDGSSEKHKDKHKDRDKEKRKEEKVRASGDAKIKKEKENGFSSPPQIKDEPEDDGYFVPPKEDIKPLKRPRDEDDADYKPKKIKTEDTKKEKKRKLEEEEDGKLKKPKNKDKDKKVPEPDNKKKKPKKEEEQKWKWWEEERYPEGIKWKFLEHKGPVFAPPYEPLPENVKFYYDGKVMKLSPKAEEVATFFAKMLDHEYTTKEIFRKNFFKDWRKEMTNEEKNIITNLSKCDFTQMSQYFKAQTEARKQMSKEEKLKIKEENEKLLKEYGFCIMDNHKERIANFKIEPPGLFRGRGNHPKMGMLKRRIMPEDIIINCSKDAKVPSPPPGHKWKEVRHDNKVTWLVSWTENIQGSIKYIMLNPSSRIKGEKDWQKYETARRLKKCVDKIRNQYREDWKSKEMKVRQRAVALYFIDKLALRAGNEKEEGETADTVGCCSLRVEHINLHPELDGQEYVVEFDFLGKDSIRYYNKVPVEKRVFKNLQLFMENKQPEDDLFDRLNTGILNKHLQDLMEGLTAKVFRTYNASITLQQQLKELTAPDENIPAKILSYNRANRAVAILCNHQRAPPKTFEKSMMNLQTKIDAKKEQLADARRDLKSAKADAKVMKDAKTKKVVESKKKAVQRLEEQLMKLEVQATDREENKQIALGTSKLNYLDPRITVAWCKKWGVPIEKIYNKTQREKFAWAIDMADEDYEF
Description: For intact cell assays, Cal27 cells were treated with compound 7be (8 μM) for 3 h before collection and washing several times with PBS buffer to avoid excess compound residues. Each cell suspension was dispensed into different 0.2 mL PCR tubes and then denatured for 3 min at different temperatures on a PCR instrument, and the cells were freeze-thawed twice with liquid nitrogen. After centrifugation, the supernatant was collected, mixed with an appropriate amount of up-sampling buffer and boiled at 95 °C for 6 min. The supernatant was detected by Western blot. For cell lysate experiments, Cal27 cells were collected with RIPA lysis buffer. Then compound 7be (8 μM) was added to the supernatant and incubated at 25 °C for 2 h. After denaturation at different temperatures for 3 min, centrifugation was performed before collecting the supernatant, mixing with an appropriate amount of lysing buffer and boiling at 95 °C for 6 min, and then Western blot was performed to detect the supernatant.

[4] = test system: Cal27 cells; experiment: MTT cell survival with autophagy inhibitor CQ; assay type: cell-based, human; conditions: Cal27, 20 μM CQ and different concentrations of 7be
Description: Meanwhile, to further confirm that compound 7be could induce autophagic death in Cal27 cells, we used a classical autophagy inhibitor, chloroquine (CQ), to evaluate the role of autophagy in compound 7be-mix-induced cell death.
Human oral cancer Cal27 cells were seeded in 96-well plates and incubated overnight in 180 μL of medium containing 10% Fetal Bovine Serum (Gibco, San Francisco, CA, USA). On the following day, compounds at final concentrations of 2.5, 5, 10 and 20 μM were added to each well and incubated for 48 h. Then, 10 μL of 5 mg/mL MTT solution was added to each well and incubated at 37 °C for 4 h. After 4 h of incubation at 37 °C, the MTT-containing medium was removed and DMSO was added to each well and the absorbance at 570 nm and 630 nm was measured using a microplate reader (CYTATION 3, Burton, Westwood, NJ, USA). Survival/% = (mean OD of experimental group/mean OD of control group) × 100%. Each test was repeated at least three times.

[5] = test system: Cal27; experiment: MTT antiproliferative assay, Cal27; assay type: cell-based, human; conditions: Homo sapiens, CAL-27, 48 h, mean ± SD
[6] = test system: Cal27 cells; experiment: Annexin V-FITC/PI apoptosis assay; assay type: cell-based, human; conditions: Cal27, 24 h, increased from 5.88%; treated with 1, 2, 3 and 4 μM
Description: Cal27 cells were treated with compound 7be for 24 h. Tumor cells were then digested and collected. The resulting cells were incubated with Annexin V/PI light-avoidance staining for 0.5 h. Finally, different stages of apoptosis populations of Cal27 cells were immediately analyzed by flow cytometry.

SMILES: Cc1cc(C)c2c(n1)S(=O)(=O)c1c-2nc(NCCN2CCCCC2)c2ccccc12 [7be, 7,9-Dimethyl-5-((2-(piperidin-1-yl)ethyl)amino) pyrido[3′,2′:4,5]thieno[3,2-c]isoquinoline 11,11-dioxide]
- MDC staining fluorescence ([1]; Cal27, high concentrations (3 μM and 4 μM)): significant green fluorescence
- MDC staining fluorescence ([1]; Cal27, low concentrations (1 μM and 2 μM)): weak green fluorescence
- expression of autophagy biomarkers Beclin-1 and LC3-II [2]: upregulated
- expression of p62 [2]: decreased
- thermal stability of Topo I protein, cell lysate ([3]; Cal27 lysate, 2 h, especially 52 to 56 °C): increased
- thermal stability of Topo I protein, intact cells ([3]; intact Cal27 cells, 3 h): increase in thermal stability
- cell survival rate of combined treatment with 20 μM CQ [4]: higher than that of the group treated with compound 7be alone
- IC50 [5]: 1120 ± 220 nM
- number of apoptotic cells (early and late apoptotic cells) [6]: 32.8%

Reference: publication PMC11858653, “Design, Synthesis and Bioactive Evaluation of Topo I/c-MYC Dual Inhibitors to Inhibit Oral Cancer via Regulating the PI3K/AKT/NF-κB Signaling Pathway” (Molecules, 2025)
